According to article PMC9687610, “Adenosine-Mimicking Derivatives of 3-Aminopyrazine-2-Carboxamide: Towards Inhibitors of Prolyl-tRNA Synthetase with Antimycobacterial Activity” (Biomolecules, 2022):
In brackets after ≈: the same amount, converted by molar mass. Where two headings read alike, the source gives them in different places.

Tests used:
[1] = tested on: Mycobacterium tuberculosis H37Ra ITM-M006710 (ATCC 9431); experiment: Microplate Alamar Blue Assay (MABA), Mtb H37Ra; type: cell-based; settings: Mycobacterium tuberculosis, 120 h
[2] = tested on: Mycobacterium smegmatis DSM 43465 (ATCC 607); experiment: Microplate Alamar Blue Assay (MABA), M. smegmatis; type: cell-based; settings: Mycolicibacterium smegmatis, read-out: M. smegmatis MIC
[3] = tested on: M. aurum DSM 43999 (ATCC 23366); experiment: Microplate Alamar Blue Assay (MABA), M. aurum; type: cell-based; settings: Mycolicibacterium aurum, read-out: M. aurum MIC
[4] = tested on: Staphylococcus aureus subsp. aureus CCM 4223 (ATCC 29213); experiment: Antibacterial microdilution broth (EUCAST), SA; type: cell-based; settings: Staphylococcus aureus, read-out: SA MIC
[5] = tested on: Staphylococcus aureus subsp. aureus methicillin-resistant (MRSA) CCM 4750 (ATCC 43300); experiment: Antibacterial microdilution broth (EUCAST), MRSA; type: cell-based; settings: Staphylococcus aureus, read-out: MRSA MIC
[6] = tested on: Staphylococcus epidermidis CCM 4418 (ATCC 12228); experiment: Antibacterial microdilution broth (EUCAST), SE; type: cell-based; settings: read-out: SE MIC
[7] = tested on: Enterococcus faecalis CCM 4224 (ATCC 29212); experiment: Antibacterial microdilution broth (EUCAST), EF; type: cell-based; settings: Enterococcus faecalis, read-out: EF MIC
[8] = tested on: Escherichia coli CCM 3954 (ATCC 25922); experiment: Antibacterial microdilution broth (EUCAST), EC; type: cell-based; settings: Escherichia coli, read-out: EC MIC
[9] = tested on: Acinetobacter baumannii DSM 30007 (ATCC 19606); experiment: Antibacterial microdilution broth (EUCAST), ACI; type: cell-based; settings: Acinetobacter baumannii, read-out: ACI MIC
[10] = tested on: Pseudomonas aeruginosa CCM 3955 (ATCC 27853); experiment: Antibacterial microdilution broth (EUCAST), PA; type: cell-based; settings: Pseudomonas aeruginosa, read-out: PA MIC
[11] = tested on: Candida albicans CCM 8320 (ATCC 24433); experiment: Antifungal microdilution broth (EUCAST), CA; type: cell-based; settings: Candida albicans, read-out: CA MIC
[12] = tested on: Candida krusei CCM 8271 (ATCC 6258); experiment: Antifungal microdilution broth (EUCAST), CK; type: cell-based; settings: Pichia kudriavzevii, read-out: CK MIC
[13] = tested on: Candida parapsilosis CCM 8260 (ATCC 22019); experiment: Antifungal microdilution broth (EUCAST), CP; type: cell-based; settings: Lodderomyces parapsilosis, read-out: CP MIC
[14] = tested on: Candida tropicalis CCM 8264 (ATCC 750); experiment: Antifungal microdilution broth (EUCAST), CT; type: cell-based; settings: Candida tropicalis, read-out: CT MIC
[15] = tested on: Aspergillus fumigatus ATCC 204305; experiment: Antifungal microdilution broth (EUCAST), AF; type: cell-based; settings: Aspergillus fumigatus, read-out: AF MIC
[16] = tested on: Aspergillus flavus CCM 8363; experiment: Antifungal microdilution broth (EUCAST), AFla; type: cell-based; settings: Aspergillus flavus, read-out: AFla MIC
[17] = tested on: Lichtheimia corymbifera CCM 8077; experiment: Antifungal microdilution broth (EUCAST), LC; type: cell-based; settings: Lichtheimia corymbifera, read-out: LC MIC
[18] = tested on: Trichophyton interdigitale CCM 8377 (ATCC 9533); experiment: Antifungal microdilution broth (EUCAST), TI; type: cell-based; settings: Trichophyton interdigitale, 72 h, read-out: TI MIC
[19] = tested on: Klebsiella pneumoniae CCM 4415 (ATCC 10031); experiment: Antibacterial microdilution broth (EUCAST), KP; settings: read after 24 h
[20] = tested on: HepG2 human hepatocellular carcinoma cells; experiment: In vitro HepG2 cytotoxicity (CellTiter 96); settings: Homo sapiens, HepG2, 24 h, read-out: HepG2 IC50, 24 h incubation; * limit = highest evaluated concentration (precipitation in medium); ** over the 1000 µM limit
[21] = pH 6.6, MABA, Middlebrook 7H9 broth pH 6.6, resazurin after 120 h, read-out: Mtb H37Ra MIC

Row | Compound | MIC [1, 21] [µg/mL] | MIC ([2]; MABA, resazurin after 48 h) [µg/mL] | MIC ([3]; MABA, resazurin after 72 h) [µg/mL] | MIC ([4]; read after 24 h) [µM] | MIC ([5]; read after 24 h) [µM] | MIC ([6]; read after 24 h) [µM] | MIC ([7]; read after 24 h) [µM] | MIC ([8]; read after 24 h) [µM] | MIC ([9]; read after 24 h) [µM] | MIC ([10]; read after 24 h) [µM] | MIC ([11]; read after 24 h) [µM] | MIC ([12]; read after 24 h) [µM] | MIC ([13]; read after 24 h) [µM] | MIC ([14]; read after 24 h) [µM] | MIC ([15]; ATCC204305, read after 24 h) [µM] | MIC ([16]; CCM8363, read after 24 h) [µM] | MIC ([17]; CCM8077, read after 24 h) [µM] | MIC [18] [µM] | melting point [°C] | KP MIC [19] [µM] | further results
1 | COC(=O)c1nccnc1NC(=O)c1ccc(C)cc1 [Compound 4e] | 250 (≈ 922 µM) | 62.5 (≈ 230 µM) | 250 (≈ 922 µM) | > 500 | > 500 | > 500 | > 500 | > 500 | > 500 | > 500 | > 500 | > 500 | > 500 | > 500 | > 500 | > 500 | > 500 | > 500 | 158.9 to 161.2 | > 500 | 
2 | COC(=O)c1nccnc1NC(=O)c1ccc(OC)cc1 [Compound 9e] | ≥ 500 | ≥ 500 | ≥ 500 | > 500 | > 500 | > 500 | > 500 | > 500 | > 500 | > 500 | > 500 | > 500 | > 500 | > 500 | > 500 | > 500 | > 500 | > 500 | 144.5 to 145 | > 500 | 
3 | COC(=O)c1nccnc1NC(=O)c1ccccc1F [Compound 10e] | 250 (≈ 908 µM) | ≥ 500 | ≥ 500 |  |  |  |  |  |  |  |  |  |  |  |  |  |  |  | 123.2 to 125.4 |  | 
4 | COC(=O)c1nccnc1NC(=O)c1cccc(F)c1 [Compound 11e] | 250 (≈ 908 µM) | ≥ 500 | ≥ 500 |  |  |  |  |  |  |  |  |  |  |  |  |  |  |  | 135.5 to 136.3 |  | 
5 | COC(=O)c1nccnc1NC(=O)c1ccc(F)cc1 [Compound 12e] | ≥ 500 | ≥ 500 | ≥ 500 |  |  |  |  |  |  |  |  |  |  |  |  |  |  |  | 151.1 to 153.6 |  | 
6 | COC(=O)c1nccnc1NC(=O)c1ccccc1Cl [Compound 13e] | ≥ 500 | 250 (≈ 857 µM) | ≥ 500 |  |  |  |  |  |  |  |  |  |  |  |  |  |  |  | 114.5 to 115.6 |  | 
7 | COC(=O)c1nccnc1NC(=O)c1cccc(Cl)c1 [Compound 14e] | 250 (≈ 857 µM) | 125 (≈ 429 µM) | 250 (≈ 857 µM) | > 500 | > 500 | > 500 | > 500 | > 500 | > 500 | > 500 | > 500 | > 500 | > 500 | > 500 | > 500 | > 500 | > 500 | > 500 | 146.3 to 147.1 | > 500 | 
8 | COC(=O)c1nccnc1NC(=O)c1ccccc1Br [Compound 16e] | 125 (≈ 372 µM) | ≥ 500 | ≥ 500 | > 500 | > 500 | > 500 | > 500 | > 500 | > 500 | > 500 | > 500 | > 500 | > 500 | > 500 | > 500 | > 500 | > 500 | > 500 | 168.4 to 169.2 | > 500 | 
9 | COC(=O)c1nccnc1NC(=O)c1cccc(Br)c1 [Compound 17e] | ≥ 500 | ≥ 500 | ≥ 500 | > 500 | > 500 | > 500 | > 500 | > 500 | > 500 | > 500 | > 500 | > 500 | > 500 | > 500 | > 500 | > 500 | > 500 | > 500 | 123.3 to 125.2 | > 500 | 
10 | COC(=O)c1nccnc1NC(=O)c1ccc(Br)cc1 [Compound 18e] | ≥ 500 | ≥ 500 | ≥ 500 | > 500 | > 500 | > 500 | > 500 | > 500 | > 500 | > 500 | > 500 | > 500 | > 500 | > 500 | > 500 | > 500 | > 500 | > 500 | 195.1 to 197 | > 500 | 
11 | NC(=O)c1nccnc1NC(=O)c1ccccc1O [Compound 22] |  | ≥ 500 | ≥ 500 |  |  |  |  |  |  |  |  |  |  |  |  |  |  |  | > 300 |  | MIC ([1]; pH 6.6, read-out: Mtb H37Ra MIC, MABA, Middlebrook 7H9 broth pH 6.6, resazurin after 120 h): ≥ 500 µg/mL; IC50 [20]: > 250 µM
12 | NC(=O)c1nccnc1NC(=O)c1ccc(O)cc1 [Compound 23] | ≥ 500 | ≥ 500 | ≥ 500 |  |  |  |  |  |  |  |  |  |  |  |  |  |  |  | 243.7 to 245.1 |  | IC50 [20]: > 500 µM
13 | NC(=O)c1nccnc1NC(=O)c1ccc(N)cc1 [Compound 24, 3-(4-aminobenzamido)pyrazine-2-carboxamide] | 125 (≈ 486 µM) | ≥ 250 | ≥ 250 |  |  |  |  |  |  |  |  |  |  |  |  |  |  |  | > 300 |  | IC50 [20]: 929 µM
14 | COC(=O)c1nccnc1NC(=O)C1CCCCC1 [Compound 27e] | ≥ 500 | 125 (≈ 475 µM) | ≥ 500 | > 500 | > 500 | > 500 | > 500 | > 500 | > 500 | > 500 | > 500 | > 500 | > 500 | > 500 | > 500 | > 500 | > 500 | > 500 | 106.9 to 108.3 | > 500 | 
15 | NC(=O)c1nccnc1NC(=O)C12CC3CC(CC(C3)C1)C2 [Compound 28] | 31.2 (≈ 104 µM) | 125 (≈ 416 µM) | 125 (≈ 416 µM) | > 500 | > 500 | > 500 | > 500 | > 500 | > 500 | > 500 | 500 (≈ 150 µg/mL) | 500 (≈ 150 µg/mL) | > 500 | > 500 | > 500 | > 500 | > 500 | 125 (≈ 37.5 µg/mL) |  | > 500 | IC50 [20]: 367 µM
16 | COC(=O)c1nccnc1NC(=O)C12CC3CC(CC(C3)C1)C2 [Compound 28e] | ≥ 125 |  |  |  |  |  |  |  |  |  |  |  |  |  |  |  |  | > 125 | 225.6 to 227.2 | > 125 | MIC ([2]; 48 h): ≥ 125 µg/mL; MIC ([3]; 72 h): ≥ 125 µg/mL; MIC ([4]; 24 h): > 125 µM; MIC ([5]; 24 h): > 125 µM; MIC ([6]; 24 h): > 125 µM; MIC ([7]; 24 h): > 125 µM; MIC ([8]; 24 h): > 125 µM; MIC ([9]; 24 h): > 125 µM; MIC ([10]; 24 h): > 125 µM; MIC ([11]; 24 h): > 125 µM; MIC ([12]; 24 h): > 125 µM; MIC ([13]; 24 h): > 125 µM; MIC ([14]; 24 h): > 125 µM; MIC ([15]; ATCC204305, 24 h): > 125 µM; MIC ([16]; CCM8363, 24 h): > 125 µM; MIC ([17]; CCM8077, 24 h): > 125 µM
